Data published in publication PMC8100298, “Histone deacetylase inhibitor resminostat in combination with sorafenib counteracts platelet-mediated pro-tumoral effects in hepatocellular carcinoma” (Scientific Reports, 2021).
Read-outs that look alike come from different tables or passages of the source.

System: Hep3B2.1-7 human hepatic carcinoma
Conditions: for Survival / Tumour weight, Mean: 21 days; for Tumour weight, Mean: SCID mice
Source text: The orthotopic xenograft mouse model of Hep3B2.1–7 human hepatic carcinoma was previously established. Tumors were created by injection of 2.5 × 10^6 Hep3B2.1-7 cells (ATCC, RRID:CVCL_0326; Virginia, Manassas, USA) into the main lobe of the liver of anaesthetized female SCID mice (C.B-17-Igh-1bPrkdc(scid)). […] Treatments were continued for 21 days. Treatment of animals was ceased when the body weight dropped below 85% of that on entry of the study. Only mice culled at the termination date were used to determine the tumor weight. The experiment was conducted by vivoPharm pty Ltd (Bundoora, Australia) in accordance with the principles outlined in the “Australian Code of Practice for the Care and Use of Animals for Scientific Purposes”, 7th Edition, 2004 (National Health and Medical Research Council, Canberra, Australia). All procedures involving animals were reviewed and approved by the University of Adelaide Animal Ethics Committee. The study was carried out in compliance with the ARRIVE guidelines (http://www.nc3rs.org.uk/page.asp?id=1357). […]
invasion assay. The ODs of the invaded cells were normalized relative to ODs from tissue […]
Orthotopic xenograft mouse model
The orthotopic xenograft mouse model of Hep3B2.1-7 human hepatic carcinom a was previously established. The experiment was conducted by vivoPharm pty Ltd (Australia) in accordance with the principles outlined in the Australian Code of Practice for the Care and Use of Animals for Scientific Purposes, 7th Edition, 2004 (National Health and Medical Research Council). Procedures involving the care and use of animals in thi s study were reviewed and approved by the University of Adelaide Animal Ethics Committee. The study was carried out in compliance with the ARRIVE guidelines
(http://www.nc3rs.org.uk/page.asp?id=1357).
The animals were delivered to the test facility 1 1 days prior inoculation. On arrival, all animals received a detailed physical examination, including body weight measurement by the […]
technical staff. […] Each a nimal was identified by a transponder (Bar Code Data Systems Pty Ltd, Botany Bay, NSW, Australia) that could be scanned with a barcode reader (DataMars LabMax I). The transponder was implanted by subcutaneous injection between the shoulder blades while the mouse was under isoflurane-induced anaesthesia. The animals were housed in groups of six in micro-isolator cages (two cages per group). Each cage was clearly labelled with a cage card indicating study number, group, gender, and prescribed dose concentration and dose volume. The animals were kept in a controlled environment (targeted ranges: temperature 21 ± 3°C, humidity 30 -70%, 15 air changes per hour), with a light/dark cycle each of 12 hours, and under barrier (quarantine) conditions. Temperature and relative humidity were monitored continuously. All animals were subjected to the same environmental conditions. A standard certified commercial rodent diet (Rat and Mouse Cubes, Specialty Feeds Pty Ltd, Glen Forrest, WA, Australia) and tap water were provided to the animals ad libitum. Food supply was sterilized by autoclaving, and water […]
supply was sterilized by acidification with hydrochloric acid (pH 2.4-2.7) by Laboratory Animal Services, University of Adelaide (Adelaide, SA, Australia). Additional feed (a nimal seed, Magill Grain Store, Magill, SA, Australia), as well as wet standard feed was provided to all animals from Day 7 onwards, as a measure to minimize body w eight loss. The extent of adverse reaction was assessed during the study and mice were culled if severe adverse […]
The age range of the mice were 12-16 weeks at
Hep3B2.1-7 human hepatic carcinoma cells were sourced from the American Type Culture […]
Collection (ATCC; Virginia, USA).

## CN(C)Cc1ccc(S(=O)(=O)n2ccc(/C=C/C(=O)NO)c2)cc1 [resminostat, Resminostat]
15 mg/kg oral once daily
  Survival: 10/12
  Tumour weight, Mean: 2.55 g
40 mg/kg oral once daily
  Survival: 10/12
  Tumour weight, Mean: 1.83 g
Daily resminostat 15 and 40 mg/kg, sorafenib 40 mg/kg, or combination (Fig. 1B)
  tumor weight compared to the vehicle control: significantly reduced tumor weight
